Data from patent US20070155838A1, “New Method for Treating Urinary Disorders” (Pfizer Inc, priority 2003, published 2007).

Key:
bladder = details: compared with oxybutynin; cited from earlier work
[1] = tested on: women with urinary urgency and frequency; experiment: randomized, double-blind, placebo-controlled study of tolterodine tartrate (Detrol) tablets 1 mg b.i.d. in women with urinary urgency and frequency; assay type: in vivo, human
Description: The objective of a study is to evaluate the efficacy and safety of tolterodine tartrate (Detrol®) tablets 2 mg daily versus placebo, in the treatment of urinary urgency and frequency in women, in a randomized, double-blind, placebo-controlled study. The patients received 1 mg tolterodine b.i.d. or placebo, and the dosage regime was one tablet orally, every 8-12 hours, not to exceed 2 tablets daily. The treatment duration was 10 days, after a 5 day pretreatment baseline phase. […] women were included in the study, and were randomized to either the tolterodine or placebo group. All of the subjects were eligible for intent-to-treat (ITT) and safety analysis. 1077 of the randomized subjects were included in the per-protocol analysis.
Females with symptoms urinary urgency, defined as having to stop the current activity and go immediately to the bathroom at least once a day (severe) or able to finish a task but go right to the bathroom at least twice a day (moderate), were included. Frequency was defined as >7 micturitions per 24 hours. The mean age was 48 years. About 83% of the subjects were Caucasian.
Women were asked to complete a diary recording the time of awakening; number and severity of urgency of each micturition, and the number of episodes of incontinence throughout the day as well as, time when tablets taken. The women were directed to begin using the study drug after 5 days (baseline, pretreatment period): 1 tablet every 8-12 hours not to exceed 2 tablets per day.
Thus, this study was designed to evaluate the efficacy and safety of tolterodine 1 mg twice daily, every 8-12 hours, compared to placebo, in women with urinary urgency and frequency. The primary efficacy endpoints were: • 1. Subject perception of improvement in symptoms of urgency after five days of treatment, vs. baseline period, using a three-point categorical scale (Chi Square analysis): • 2. Mean of daily average severity of urgency for urgent episodes (urgency rating score of at least 1) for the 5-day baseline period vs. first five days of treatment.
A five-point categorical scale was used to assess the severity of urgency experienced at each micturition, ranging from 0 (no discomfort) to 4 (very severe).
The secondary efficacy endpoints were: • 1. Average number of urgency episodes per day per subject for the 5-day baseline period vs. first five days of treatment. • 2. Average urgency score (severity of urgency) per subject for micturition episodes accompanied by urgency (a rating score of at least 1) for the 5-day baseline period vs. first day of treatment. • 3. Average number of micturitions per day per subject for the 5-day baseline period vs. first five days of treatment.
Subject perception of improvement in symptoms or urgency after ten days of treatment, vs. baseline period, using a three-point categorical scale (Chi Square analysis).
The sudden urge to urinate accompanied by frequency of urination is a problem for many adults. The symptoms of urgency are most problematic. Therefore, the primary variables examined the subjective perception of improvement in urgency as well as the severity of urgency in subjects treated with tolterodine 1 mg b.i.d. In addition, the frequency of urination was examined as this is a standard assessment tool commonly used to assess the efficacy of drugs for the treatment of overactive bladder syndrome.
Two populations were analyzed for efficacy: the intent-to-treat (ITT) and the per-protocol populations. The former comprised all individuals randomized to treatment. The latter consisted of those individuals who complied with the protocol with regard to eligibility, visit schedule, diary completion and treatment schedule. All randomized subjects who took study medication were included in the safety analyses. Incidence of adverse events was tabulated for all randomized subjects. […]

[2] = tested on: muscarinic receptors of the salivary gland; details: compared with oxybutynin; cited from earlier work
[3] = all analyzed time points, including day 1, compared to placebo
[4] = all analyzed time points, compared to placebo

Cc1ccc(O)c([C@H](CCN(C(C)C)C(C)C)c2ccccc2)c1 [tolterodine, (R)-N,N-diisopropyl-3-(2-hydroxy-5-methylphenyl)-3-phenylpropanamine]
potency in the bladder relative to oxybutynin (bladder): equipotent with oxybutynin
subjects with AEs related to nervous system disorders ([1]; 1 mg b.i.d. oral, 10 days, placebo 2.0%): 3.0%
subjects with adverse events considered related to study medication ([1]; 1 mg b.i.d. oral, 10 days, placebo 4.7%): 4.8%
subjects with AEs related to gastrointestinal disorders ([1]; 1 mg b.i.d. oral, 10 days, placebo 4.9%): 5.6%
subjects reporting adverse events ([1]; 1 mg b.i.d. oral, 10 days, placebo 10.7%): 10.8%
subjects with AEs related to nervous system disorders (number) ([1]; 1 mg b.i.d. oral, 10 days, placebo 13): 20 subjects
subjects with adverse events considered related to study medication (number) ([1]; 1 mg b.i.d. oral, 10 days, placebo 31): thirty-two
subjects with AEs related to gastrointestinal disorders (number) ([1]; 1 mg b.i.d. oral, 10 days, placebo 32): 37 subjects
subjects reporting adverse events (number) ([1]; 1 mg b.i.d. oral, 10 days, placebo 70): Seventy-one
subjects discontinued from the study due to AEs (number) ([1]; 1 mg b.i.d. oral, 10 days, placebo four): Three
subjects reporting serious AEs (number) ([1]; 1 mg b.i.d. oral, 10 days, placebo one): Three
percentage of subjects reporting symptom improvement (subject perception of improvement in symptoms of urgency) ([1]; Day 5, 1 mg b.i.d. oral, compared to placebo): statistically significantly higher percentage
decrease in severity of urgency for all micturitions [1, 3]: statistically significantly greater decrease
decrease in severity of urgency for urgent episodes [1, 3]: statistically significantly greater decrease
decrease in the number of micturitions/day [1, 4]: statistically significantly greater decrease
reduction in the number of urgent episodes/day [1, 4]: statistically significantly greater reduction
reduction from baseline in number of micturitions/day ([1]; days 1-5, 1 mg b.i.d. oral, N=660, placebo 1.26): 1.59
improvement from baseline in severity of urgency for urgent episodes (score, 0-4 scale) ([1]; days 1-5, 1 mg b.i.d. oral, placebo 0.19): 0.27
affinity for muscarinic receptors of the salivary gland relative to oxybutynin [2]: eight times lower
